Reference: patent publication US8093273B2, “Flavanoids and isoflavanoids for the prevention and treatment of cardiovascular diseases” (Resverlogix Corp., priority 2004, dated 2012)
Where two headings read alike, the source gives them in different places.

Key:
human ApoA-I promoter = assay: ApoA-I promoter induction in Caco-2 intestinal cells (pAI.474-Luc luciferase reporter); type: cell-based; conditions: Caco-2 cells, 15 μM, 48 hours incubation, luciferase activity vs control samples
How it was run: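 Caco-2 cells stably carrying the human ApoA-I promoter–firefly luciferase construct (pAI.474-Luc) were starved 24 h in 0.5% FBS medium, then exposed to compound at 0 to 100 μM final for 48 h at 37° C. Luciferase activity in lysates was normalized to Bradford protein and compared with solvent-only and untreated controls.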

hApoA-I transgenic mice = assay: hApoA-I transgenic mice, oral gavage for 14 days; type: in vivo; conditions: Mus musculus, po, 336 h, relative to pretreatment, read-out: ApoA-I (% change); for change in vivo at 10 mg/kg: 10 mg/kg BID 14 days
How it was run: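 Male hApoA-I transgenic mice (7–8 weeks) dosed orally by gavage daily for 14 days, BID or SID, as suspensions at 5 mL/kg in 0.5% methylcellulose/1% Tween 80 or F-101; fenofibrate 100 mg/kg as positive control. After a 4 h fast on day 15, plasma ApoA-I, HDL-C, total cholesterol and triglycerides measured relative to pre-bleed-matched groups.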

With `O=c1cc(-c2ccc(O)cc2)oc2ncccc12` [Example 34, 2-(4-Hydroxy-phenyl)-pyrano[2,3-b]pyridin-4-one] the “ApoA-I Promoter Induction” value (human ApoA-I promoter) was “increased”, the change in vivo at 3 mg/kg (hApoA-I transgenic mice; Table 6 first group, 3 mg/kg BID 14 days, Control 1 (0.5% MC & 1% Tween 80) 11.94) was 18.9% and the change in vivo at 10 mg/kg (hApoA-I transgenic mice; Table 6 first group, Control 1 11.94) was 36.6%. For the same compound, the change in vivo at 30 mg/kg (hApoA-I transgenic mice; Table 6 first group, 30 mg/kg BID 14 days, Control 1 11.94) was 47.5% and the change in vivo at 10 mg/kg (hApoA-I transgenic mice; Table 6 third group, Control 3 (F-101) (6.32)) was 30.9%.
